Test results reported in patent EP1311531B1, “STEROID DERIVED ANTIBIOTICS” (Brigham Young University, priority 2000, dated 2002).
Values after ≈ are worked out from the molar mass of the structure shown. Where two headings read alike, the source gives them in different places.

Key:
E. coli (ATCC 10798) [1] = experiment: MIC and MBC measurement; assay type: cell-based, Escherichia coli
Procedure: (§1) General: Microorganisms. Reference strains were purchased from the American Type Culture Collection (Rockville, MD) or Bactrol disks from Difeo Laboratories (Detroit, MI). […] Bacterial strains were maintained on Mueller-Hinton agar plates, and Candida albicans was maintained on Sabouraud Dextrose agar plates.
(§2) Aliquots (20 mL) of the homogeneous solution were then poured in sterile plastic petri dishes (100 x 15 mm, Fisher Scientific). Solutions of compounds were made by dissolving the HCl salt of the respective compound into an appropriate amount of deionized and sterilized water followed by microfiltration.
(§3) Aliquots of 1 mL of the suspension were added to test tubes containing 1 mL TSB and incrementally varied concentrations of cholic acid derivatives and/or erythromycin or novobiocin. […] Additionally, an alliquot from each of the samples showing no measurable turbidity was subcultured on TSA plates (alliquots were diluted to provide fewer than 300 CFU). Colonies that grew on the subculture after overnight incubation were counted and the number of CFU/mL in the samples were calculated. The calculated values were compared to the number of CFU/mL in the original inoculum.

E. coli (ATCC 10798) [2] = experiment: Sensitization to erythromycin or novobiocin (outer membrane permeabilization, FIC); assay type: cell-based, Escherichia coli; conditions: for (a) Concentration required to lower the MIC of erythromycin from 70 to 1 µg/mL / (b) MBC with 1 µg/mL erythromycin / (d) Concentration required to lower the MIC of novobiocin from >500 to 1 µg/mL / FIC^c (FIC values with erythromycin) / FIC^c (FIC values with novobiocin): Table 9, Escherichia coli (ATCC 10798); for MBC: Escherichia coli; for MBC / concentration required to lower the MIC of erythromycin from 70 µg/mL to 1 µg/mL: E. coli (ATCC 10798); for concentration required to lower the MIC of erythromycin from 70 µg/mL to 1 µg/mL: Table 2
Procedure: (§4) FICs can be performed by checkerboard titrations of compounds in one dimension of a microtiter plate, and of antibiotics in the other dimension, for example. The FIC is calculated by looking at the impact of one antibiotic on the MIC of the other and vice versa. […] Preferably, an FIC of less than 0.5 is obtained for synergism. As used herein, FIC can be determined as follows: FIC = (MIC(compound in combination))/(MIC(compound alone)) + (MIC(antibiotic in combination))/(MIC(antibiotic alone)) [formula]
(§5) Aliquots of 1 mL of the suspension were added to test tubes containing 1 mL TSB and incrementally varied concentrations of cholic acid derivatives and/or erythromycin or novobiocin. In the sensitization experiments, erythromycin or novobiocin were added 15 minutes later than the cholic acid derivatives. The samples were subjected to stationary incubation at 37°C for 24 hours. Sample turbidity was determined by measuring absorption at 760 nm (HP 8453 UV-Visible Chemstation, Hewlett Packard). Additionally, an alliquot from each of the samples showing no measurable turbidity was subcultured on TSA plates (alliquots were diluted to provide fewer than 300 CFU). Colonies that grew on the subculture after overnight incubation were counted and the number of CFU/mL in the samples were calculated. The calculated values were compared to the number of CFU/mL in the original inoculum.
They were also tested for the ability to permeabilize the outer membrane of Gram-negative bacteria, causing sensitization to hydrophobic antibiotics that cannot cross the outer membrane. The permeabilization of the outer membrane was measured using erythromycin and novobiocin.

[3] = test system: Pseudomonas aeruginosa ATCC 27853; experiment: MIC and MBC measurement; assay type: cell-based; conditions: ATCC27853, Table 6, P. aureginosa (ATCC 27853)
Procedure: as §1, §2, §3

[4] = test system: Pseudomonas aeruginosa ATCC 27853; experiment: Sensitization to erythromycin, novobiocin or rifampicin (permeabilization, FIC); assay type: cell-based; conditions: Table 7; P. aureginosa (ATCC 27853); with erythromycin
Procedure: as §4, §5
Concentrations of 0.5, 1.0 or 3.0 µg/mL of these antibiotics were used, and the concentrations of the cholic acid derivatives required to inhibit bacterial growth of Gram-negative strains were determined.

[5] = ATCC10798, Table 9, Escherichia coli (ATCC 10798), read-out: MBC
[6] = ATCC10798, Table 9, Escherichia coli (ATCC 10798), read-out: MIC
[7] = Escherichia coli, ATCC10798, Table 1, E. coli (ATCC 10798), read-out: MBC
[8] = Escherichia coli, ATCC10798, Table 1, E. coli (ATCC 10798), read-out: MIC
[9] = ATCC10798, Table 2, with erythromycin
[10] = Table 9, Escherichia coli (ATCC 10798)

SMILES	MBC (E. coli (ATCC 10798) [1]; [5])	MIC (E. coli (ATCC 10798) [1]; [6])	(a) Concentration required to lower the MIC of erythromycin from 70 to 1 µg/mL (E. coli (ATCC 10798) [2])	(b) MBC with 1 µg/mL erythromycin (E. coli (ATCC 10798) [2])	(d) Concentration required to lower the MIC of novobiocin from >500 to 1 µg/mL (E. coli (ATCC 10798) [2])	FIC^c (FIC values with erythromycin) (E. coli (ATCC 10798) [2])	FIC^c (FIC values with novobiocin) (E. coli (ATCC 10798) [2])	MBC (E. coli (ATCC 10798) [1]; [7])	MIC (E. coli (ATCC 10798) [1]; [8])	MBC (E. coli (ATCC 10798) [2]; [9])	concentration required to lower the MIC of erythromycin from 70 µg/mL to 1 µg/mL (E. coli (ATCC 10798) [2]; with erythromycin)	MBC (E. coli (ATCC 10798) [1]; [10])	MIC (E. coli (ATCC 10798) [1]; [10])	MBC (E. coli (ATCC 10798) [2]; ATCC10798, Table 3, with novobiocin)	MIC [3]	concentration required to lower the MIC of erythromycin from 240 µg/mL to 5 µg/mL [4]
CCCCCOCCC[C@@H](C)[C@H]1CC[C@H]2[C@@H]3[C@H](OCCCN)C[C@@H]4C[C@H](OCCCN)CC[C@]4(C)[C@H]3C[C@H](OCCCN)[C@]12C [Compound 113]	5 µg/mL (≈ 7.86 µM)	3 µg/mL (≈ 4.72 µM)	0.8 µg/mL	2.0 µg/mL	1.0 µg/mL	0.28	0.27									
C[C@H](CCCOCCC[C@@H](C)[C@H]1CC[C@H]2[C@@H]3[C@H](OCCCN)C[C@@H]4C[C@H](OCCCN)CC[C@]4(C)[C@H]3C[C@H](OCCCN)[C@]12C)[C@H]1CC[C@H]2[C@@H]3[C@H](OCCCN)C[C@@H]4C[C@H](OCCCN)CC[C@]4(C)[C@H]3C[C@H](OCCCN)[C@]12C [Compound 12]								4 µg/mL (≈ 3.59 µM)	4 µg/mL (≈ 3.59 µM)	2.5 µg/mL	1.5 µg/mL					
CC(O)[C@H]1CC[C@H]2[C@@H]3[C@H](OCCCN)C[C@@H]4C[C@H](OCCCN)CC[C@]4(C)[C@H]3C[C@H](OCCCN)[C@]12C (stereo partly drawn) [Compound 11]			20 µg/mL	180 µg/mL	40 µg/mL	0.16	0.29	> 160 µg/mL	140 µg/mL (≈ 267 µM)	> 160 µg/mL	40 µg/mL	>160 µg/mL	140 µg/mL (≈ 267 µM)	140 µg/mL		
CCCCCCCCOCCC[C@@H](C)[C@H]1CC[C@H]2[C@@H]3[C@H](OCCCN)C[C@@H]4C[C@H](OCCCN)CC[C@]4(C)[C@H]3C[C@H](OCCCN)[C@]12C [Compound 9]			3.0 µg/mL	3.0 µg/mL		1.0		10 µg/mL (≈ 14.7 µM)	3 µg/mL (≈ 4.42 µM)	3 µg/mL	3 µg/mL	10 µg/mL (≈ 14.7 µM)	3.0 µg/mL (≈ 4.42 µM)		8 µg/mL (≈ 11.8 µM)	5 µg/mL
C[C@H](CCCN(C)Cc1ccccc1)[C@H]1CC[C@H]2[C@@H]3[C@H](OCCN)C[C@@H]4C[C@@H](OCCN)CC[C@]4(C)[C@H]3C[C@H](OCCN)[C@]12C [Compound 8]									46 µg/mL (≈ 73.4 µM)		10 µg/mL				50 µg/mL (≈ 79.7 µM)	40 µg/mL
C[C@H](CO)[C@H]1CC[C@H]2[C@@H]3[C@H](OCCCN)C[C@@H]4C[C@H](OCCCN)CC[C@]4(C)[C@H]3C[C@H](OCCCN)[C@]12C [Compound 108]	140 µg/mL (≈ 260 µM)	70 µg/mL (≈ 130 µM)	4.0 µg/mL	140 µg/mL	12 µg/mL	0.071	0.17									
